Legend:
[1] = target: Protein-tyrosine kinase 6 (Homo sapiens) (UniProt Q13882); settings: Compound concentration 1000.0 nM
[2] = target: 5-hydroxytryptamine receptor 1B (Homo sapiens) (UniProt P28222); settings: Compound concentration 10.0 uM
[3] = tested on: Tyrosine-protein kinase ABL1 (Homo sapiens), P00519 [F317L]; settings: Compound concentration 1000.0 nM
[4] = target: NUAK family SNF1-like kinase 1 (Homo sapiens) (UniProt O60285); settings: Compound concentration 1000.0 nM
[5] = target: Proto-oncogene tyrosine-protein kinase ROS (Homo sapiens) (UniProt P08922); settings: Compound concentration 1000.0 nM
[6] = target: Cyclin-dependent kinase 13 (Homo sapiens) (UniProt Q14004); settings: Compound concentration 1000.0 nM
[7] = target: Serine/threonine-protein kinase Nek9 (Homo sapiens) (UniProt Q8TD19); settings: Compound concentration 1000.0 nM
[8] = target: Cyclin-dependent kinase 4 (Homo sapiens) (UniProt P11802); settings: Compound concentration 1000.0 nM
[9] = target: Serine/threonine-protein kinase D2 (Homo sapiens) (UniProt Q9BZL6); settings: Compound concentration 1000.0 nM
[10] = target: Receptor-interacting serine/threonine-protein kinase 1 (Homo sapiens) (UniProt Q13546); settings: Compound concentration 1000.0 nM
Receptor-interacting serine/threonine-protein kinase 1 (Homo sapiens), sequence (Q13546 whole entry): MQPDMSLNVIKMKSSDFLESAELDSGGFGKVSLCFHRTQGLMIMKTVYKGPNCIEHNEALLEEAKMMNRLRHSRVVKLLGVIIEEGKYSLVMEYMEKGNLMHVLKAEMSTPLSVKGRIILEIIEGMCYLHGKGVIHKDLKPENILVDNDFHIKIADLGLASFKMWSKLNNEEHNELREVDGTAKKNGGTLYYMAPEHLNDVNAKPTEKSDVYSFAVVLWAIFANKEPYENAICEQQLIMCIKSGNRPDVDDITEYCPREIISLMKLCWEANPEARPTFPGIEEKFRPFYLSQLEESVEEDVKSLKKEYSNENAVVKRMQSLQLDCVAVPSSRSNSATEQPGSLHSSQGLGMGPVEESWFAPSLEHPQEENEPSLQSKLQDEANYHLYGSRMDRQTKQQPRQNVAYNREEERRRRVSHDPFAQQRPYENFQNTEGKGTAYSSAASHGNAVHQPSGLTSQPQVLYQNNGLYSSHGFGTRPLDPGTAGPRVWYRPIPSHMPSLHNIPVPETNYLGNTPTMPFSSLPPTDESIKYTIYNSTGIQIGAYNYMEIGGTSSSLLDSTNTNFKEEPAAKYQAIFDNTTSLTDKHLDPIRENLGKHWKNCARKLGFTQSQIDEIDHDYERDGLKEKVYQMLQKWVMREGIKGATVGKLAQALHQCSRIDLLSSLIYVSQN

[11] = target: 1-phosphatidylinositol 3-phosphate 5-kinase (Homo sapiens) (UniProt Q9Y2I7); settings: Compound concentration 1000.0 nM
[12] = target: Glycogen synthase kinase-3 beta (Homo sapiens) (UniProt P49841); settings: Compound concentration 1000.0 nM
[13] = target: G protein-coupled receptor kinase 4 (Homo sapiens) (UniProt P32298); settings: Compound concentration 1000.0 nM
[14] = target: Dual specificity protein kinase CLK1 (Homo sapiens) (UniProt P49759); settings: Compound concentration 1000.0 nM
[15] = target: Serine/threonine-protein kinase PAK 1 (Homo sapiens) (UniProt Q13153); settings: Compound concentration 1000.0 nM
[16] = target: Phosphatidylinositol 4,5-bisphosphate 3-kinase catalytic subunit delta isoform (Homo sapiens) (UniProt O00329); settings: Compound concentration 1000.0 nM
Phosphatidylinositol 4,5-bisphosphate 3-kinase catalytic subunit delta isoform (Homo sapiens), sequence (O00329 whole entry, canonical isoform): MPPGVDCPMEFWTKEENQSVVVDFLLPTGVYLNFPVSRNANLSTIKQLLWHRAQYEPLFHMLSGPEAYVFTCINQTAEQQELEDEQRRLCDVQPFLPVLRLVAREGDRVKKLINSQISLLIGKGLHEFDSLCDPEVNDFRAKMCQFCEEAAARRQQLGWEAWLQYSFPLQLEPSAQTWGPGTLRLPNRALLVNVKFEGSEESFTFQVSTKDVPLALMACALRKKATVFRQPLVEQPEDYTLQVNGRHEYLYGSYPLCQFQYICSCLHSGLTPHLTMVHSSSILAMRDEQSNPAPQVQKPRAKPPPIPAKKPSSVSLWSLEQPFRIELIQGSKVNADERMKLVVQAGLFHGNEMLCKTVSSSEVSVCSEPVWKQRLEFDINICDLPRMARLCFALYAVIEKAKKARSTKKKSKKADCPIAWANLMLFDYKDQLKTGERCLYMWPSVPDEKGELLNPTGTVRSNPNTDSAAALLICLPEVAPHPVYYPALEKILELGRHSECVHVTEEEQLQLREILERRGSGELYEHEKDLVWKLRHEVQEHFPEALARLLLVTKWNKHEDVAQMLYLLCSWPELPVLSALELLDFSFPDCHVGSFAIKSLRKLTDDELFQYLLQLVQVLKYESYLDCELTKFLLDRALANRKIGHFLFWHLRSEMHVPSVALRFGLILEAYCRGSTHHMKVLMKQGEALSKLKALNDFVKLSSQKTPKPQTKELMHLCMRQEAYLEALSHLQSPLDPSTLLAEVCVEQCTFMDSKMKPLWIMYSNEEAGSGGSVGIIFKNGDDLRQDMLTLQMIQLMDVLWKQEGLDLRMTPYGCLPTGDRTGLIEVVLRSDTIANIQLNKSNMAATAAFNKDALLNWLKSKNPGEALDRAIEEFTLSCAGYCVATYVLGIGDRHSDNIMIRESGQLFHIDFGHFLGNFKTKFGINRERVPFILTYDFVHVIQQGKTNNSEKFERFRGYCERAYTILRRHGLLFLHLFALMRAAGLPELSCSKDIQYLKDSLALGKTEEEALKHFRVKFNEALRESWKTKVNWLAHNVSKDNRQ

[17] = target: Ephrin type-B receptor 6 (Homo sapiens) (UniProt O15197); settings: Compound concentration 1000.0 nM
[18] = target: Serine/threonine-protein kinase MRCK alpha (Homo sapiens) (UniProt Q5VT25); settings: Compound concentration 1000.0 nM
[19] = tested on: Mast/stem cell growth factor receptor Kit (Homo sapiens), P10721 [L576P]; settings: Compound concentration 1000.0 nM
[20] = tested on: Receptor-type tyrosine-protein kinase FLT3 (Homo sapiens), P36888 [UNDEFINED MUTATION]; settings: Compound concentration 1000.0 nM
[21] = target: Atypical kinase COQ8A, mitochondrial (Homo sapiens) (UniProt Q8NI60); settings: Compound concentration 1000.0 nM
[22] = target: Cyclin-dependent kinase 11B (Homo sapiens) (UniProt P21127); settings: Compound concentration 1000.0 nM
[23] = target: Serine/threonine-protein kinase STK11 (Homo sapiens) (UniProt Q15831); settings: Compound concentration 1000.0 nM
[24] = target: Mitogen-activated protein kinase kinase kinase 2 (Homo sapiens) (UniProt Q9Y2U5); settings: Compound concentration 1000.0 nM
Mitogen-activated protein kinase kinase kinase 2 (Homo sapiens), sequence (Q9Y2U5 whole entry): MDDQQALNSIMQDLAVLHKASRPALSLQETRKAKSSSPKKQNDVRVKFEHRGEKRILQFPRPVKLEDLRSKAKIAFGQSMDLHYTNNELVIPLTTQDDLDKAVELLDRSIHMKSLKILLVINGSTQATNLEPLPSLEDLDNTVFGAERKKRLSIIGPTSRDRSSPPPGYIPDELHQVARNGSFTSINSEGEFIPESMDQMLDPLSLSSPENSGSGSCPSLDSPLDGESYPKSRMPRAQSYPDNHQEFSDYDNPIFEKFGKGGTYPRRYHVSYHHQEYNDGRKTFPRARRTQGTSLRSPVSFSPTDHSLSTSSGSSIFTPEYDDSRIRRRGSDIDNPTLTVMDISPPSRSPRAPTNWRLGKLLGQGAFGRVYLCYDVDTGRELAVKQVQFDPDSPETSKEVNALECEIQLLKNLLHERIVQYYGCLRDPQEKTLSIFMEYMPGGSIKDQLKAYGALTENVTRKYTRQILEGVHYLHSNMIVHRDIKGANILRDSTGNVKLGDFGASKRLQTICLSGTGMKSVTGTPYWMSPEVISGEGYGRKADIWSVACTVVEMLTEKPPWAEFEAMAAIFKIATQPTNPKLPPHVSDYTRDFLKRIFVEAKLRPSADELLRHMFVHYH

[25] = target: Dual specificity mitogen-activated protein kinase kinase 2 (Homo sapiens) (UniProt P36507); settings: Compound concentration 1000.0 nM
[26] = target: Ribosomal protein S6 kinase alpha-3 (Homo sapiens) (UniProt P51812); settings: Compound concentration 1000.0 nM
[27] = target: Sigma non-opioid intracellular receptor 1 (Homo sapiens, UniProt Q99720); settings: Compound concentration 10.0 uM
[28] = target: Death-associated protein kinase 1 (Homo sapiens) (UniProt P53355); settings: Compound concentration 1000.0 nM
[29] = target: Mitogen-activated protein kinase 10 (Homo sapiens) (UniProt P53779); settings: Compound concentration 1000.0 nM
Mitogen-activated protein kinase 10 (Homo sapiens), sequence (P53779 whole entry): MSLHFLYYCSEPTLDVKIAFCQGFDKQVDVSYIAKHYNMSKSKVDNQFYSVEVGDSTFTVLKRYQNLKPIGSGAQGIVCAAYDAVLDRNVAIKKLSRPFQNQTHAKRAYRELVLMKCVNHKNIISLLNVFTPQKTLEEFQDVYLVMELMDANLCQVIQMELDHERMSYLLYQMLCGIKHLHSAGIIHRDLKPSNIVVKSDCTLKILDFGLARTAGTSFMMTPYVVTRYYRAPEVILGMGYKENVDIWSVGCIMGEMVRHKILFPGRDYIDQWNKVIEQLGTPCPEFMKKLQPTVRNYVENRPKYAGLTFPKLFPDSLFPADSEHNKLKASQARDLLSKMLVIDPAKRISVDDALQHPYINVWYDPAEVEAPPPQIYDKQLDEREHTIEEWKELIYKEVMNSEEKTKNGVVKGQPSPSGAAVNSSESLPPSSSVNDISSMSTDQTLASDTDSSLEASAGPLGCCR

[30] = target: Cyclin-dependent kinase-like 2 (Homo sapiens) (UniProt Q92772); settings: Compound concentration 1000.0 nM
[31] = target: Serine/threonine-protein kinase WNK4 (Homo sapiens) (UniProt Q96J92); settings: Compound concentration 1000.0 nM
Serine/threonine-protein kinase WNK4 (Homo sapiens), sequence (Q96J92 whole entry): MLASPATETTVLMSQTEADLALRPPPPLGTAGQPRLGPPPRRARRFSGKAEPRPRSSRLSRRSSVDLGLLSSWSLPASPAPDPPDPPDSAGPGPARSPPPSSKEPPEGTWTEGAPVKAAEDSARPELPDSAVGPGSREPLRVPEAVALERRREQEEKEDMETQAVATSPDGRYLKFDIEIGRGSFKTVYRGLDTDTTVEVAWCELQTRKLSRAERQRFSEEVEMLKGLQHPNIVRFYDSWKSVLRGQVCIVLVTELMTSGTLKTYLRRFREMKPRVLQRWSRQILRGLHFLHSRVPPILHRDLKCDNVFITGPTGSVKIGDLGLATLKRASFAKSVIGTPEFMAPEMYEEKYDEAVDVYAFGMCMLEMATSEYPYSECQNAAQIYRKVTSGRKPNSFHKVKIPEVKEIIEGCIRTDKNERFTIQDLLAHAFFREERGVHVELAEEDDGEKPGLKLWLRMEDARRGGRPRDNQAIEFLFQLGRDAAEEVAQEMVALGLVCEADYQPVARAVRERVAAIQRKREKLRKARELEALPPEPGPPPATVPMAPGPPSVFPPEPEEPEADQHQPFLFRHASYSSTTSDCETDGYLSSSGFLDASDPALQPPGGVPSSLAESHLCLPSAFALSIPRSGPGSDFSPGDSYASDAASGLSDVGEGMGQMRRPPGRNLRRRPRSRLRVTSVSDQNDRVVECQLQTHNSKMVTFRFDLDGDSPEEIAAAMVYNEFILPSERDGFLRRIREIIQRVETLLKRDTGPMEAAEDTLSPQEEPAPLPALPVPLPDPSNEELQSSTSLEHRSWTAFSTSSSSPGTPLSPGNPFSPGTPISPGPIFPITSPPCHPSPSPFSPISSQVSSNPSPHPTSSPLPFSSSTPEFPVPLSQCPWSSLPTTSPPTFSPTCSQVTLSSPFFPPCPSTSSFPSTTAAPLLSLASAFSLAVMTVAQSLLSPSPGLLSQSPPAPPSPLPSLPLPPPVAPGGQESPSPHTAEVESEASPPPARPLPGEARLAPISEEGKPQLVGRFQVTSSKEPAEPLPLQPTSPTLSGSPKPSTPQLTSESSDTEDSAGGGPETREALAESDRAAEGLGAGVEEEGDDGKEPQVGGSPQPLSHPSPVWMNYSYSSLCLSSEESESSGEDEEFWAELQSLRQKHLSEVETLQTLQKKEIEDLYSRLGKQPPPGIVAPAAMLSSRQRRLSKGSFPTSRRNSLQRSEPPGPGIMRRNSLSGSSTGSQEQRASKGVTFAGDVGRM

[32] = target: T1, Alpha-2A adrenergic receptor (Homo sapiens) (UniProt P08913); settings: Compound concentration 10.0 uM
T1 sequence (whole entry): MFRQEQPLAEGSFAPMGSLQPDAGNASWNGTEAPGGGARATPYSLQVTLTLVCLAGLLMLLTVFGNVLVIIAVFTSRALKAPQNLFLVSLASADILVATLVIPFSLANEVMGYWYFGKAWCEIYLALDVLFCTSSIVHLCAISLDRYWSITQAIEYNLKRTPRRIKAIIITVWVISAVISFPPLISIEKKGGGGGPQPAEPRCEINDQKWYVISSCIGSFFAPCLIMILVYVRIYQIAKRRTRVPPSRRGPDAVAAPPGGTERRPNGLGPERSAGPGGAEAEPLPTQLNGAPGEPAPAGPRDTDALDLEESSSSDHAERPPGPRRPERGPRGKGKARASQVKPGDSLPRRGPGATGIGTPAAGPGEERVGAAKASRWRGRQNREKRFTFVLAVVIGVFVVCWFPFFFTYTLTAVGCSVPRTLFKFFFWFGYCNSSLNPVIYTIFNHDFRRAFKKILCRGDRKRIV

[33] = target: Receptor-interacting serine/threonine-protein kinase 4 (Homo sapiens) (UniProt P57078); settings: Compound concentration 1000.0 nM
Receptor-interacting serine/threonine-protein kinase 4 (Homo sapiens), sequence (P57078 whole entry, canonical isoform): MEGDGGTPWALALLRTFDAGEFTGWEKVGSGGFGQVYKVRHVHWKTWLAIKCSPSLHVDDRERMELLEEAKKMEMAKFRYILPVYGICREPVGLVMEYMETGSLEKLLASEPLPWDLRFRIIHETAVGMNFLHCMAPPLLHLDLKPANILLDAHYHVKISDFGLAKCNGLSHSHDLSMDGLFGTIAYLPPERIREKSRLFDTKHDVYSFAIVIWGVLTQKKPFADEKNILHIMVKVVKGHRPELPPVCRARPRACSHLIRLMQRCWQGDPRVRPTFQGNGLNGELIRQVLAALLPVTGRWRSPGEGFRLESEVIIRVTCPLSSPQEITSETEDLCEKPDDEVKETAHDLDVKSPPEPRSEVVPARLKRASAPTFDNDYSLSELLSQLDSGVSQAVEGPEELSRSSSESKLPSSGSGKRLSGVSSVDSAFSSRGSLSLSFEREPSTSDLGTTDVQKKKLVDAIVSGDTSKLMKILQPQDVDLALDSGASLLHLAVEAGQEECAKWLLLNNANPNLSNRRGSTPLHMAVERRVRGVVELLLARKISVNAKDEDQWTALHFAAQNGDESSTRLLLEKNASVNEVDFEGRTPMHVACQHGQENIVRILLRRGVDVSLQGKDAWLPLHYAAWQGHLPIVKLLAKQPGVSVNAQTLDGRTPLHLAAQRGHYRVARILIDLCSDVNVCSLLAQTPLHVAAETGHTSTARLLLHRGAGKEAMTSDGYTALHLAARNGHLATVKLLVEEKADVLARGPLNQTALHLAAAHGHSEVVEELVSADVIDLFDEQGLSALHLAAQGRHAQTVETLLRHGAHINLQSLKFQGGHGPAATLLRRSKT

[34] = target: Phosphatidylinositol 4,5-bisphosphate 3-kinase catalytic subunit beta isoform (Homo sapiens) (UniProt P42338); settings: Compound concentration 1000.0 nM
[35] = target: Serine/threonine-protein kinase BRSK1 (Homo sapiens) (UniProt Q8TDC3); settings: Compound concentration 1000.0 nM
[36] = target: Serine/threonine-protein kinase 33 (Homo sapiens) (UniProt Q9BYT3); settings: Compound concentration 1000.0 nM
[37] = target: Insulin-like growth factor 1 receptor (Homo sapiens) (UniProt P08069); settings: Compound concentration 1000.0 nM
[38] = target: 5-hydroxytryptamine receptor 2A (Homo sapiens, UniProt P28223); settings: Compound concentration 10.0 uM
[39] = target: Serine/threonine-protein kinase 17B (Homo sapiens) (UniProt O94768); settings: Compound concentration 1000.0 nM

Structure (SMILES): O=C(Nc1ccc(Oc2ccc(F)cc2)cc1)N1CCc2ncccc2[C@H]1c1ccc(F)cc1 [BAY-897]
- residual activity [1]: 100%
- inhibition [2]: 18.8%
- residual activity [3]: 86%
- residual activity [4]: 92%
- residual activity [5]: 76%
- residual activity [6]: 100%
- residual activity [7]: 88%
- residual activity [8]: 94%
- residual activity [9]: 100%
- residual activity [10]: 100%
- residual activity [11]: 95%
- residual activity [12]: 100%
- residual activity [13]: 93%
- residual activity [14]: 86%
- residual activity [15]: 82%
- residual activity [16]: 93%
- residual activity [17]: 70%
- residual activity [18]: 94%
- residual activity [19]: 100%
- residual activity [20]: 93%
- residual activity [21]: 100%
- residual activity [22]: 89%
- residual activity [23]: 61%
- residual activity [24]: 89%
- residual activity [25]: 100%
- residual activity [26]: 97%
- inhibition [27]: 73.4%
- residual activity [28]: 87%
- residual activity [29]: 82%
- residual activity [30]: 77%
- residual activity [31]: 85%
- inhibition [32]: 7.16%
- residual activity [33]: 84%
- residual activity [34]: 77%
- residual activity [35]: 100%
- residual activity [36]: 50%
- residual activity [37]: 100%
- inhibition [38]: 54.5%
- residual activity [39]: 89%

Structure (SMILES): O=C(Nc1cnc(Oc2ccc(F)cc2)nc1)N1CCc2ncccc2[C@@H]1c1ccc(F)cc1 [BAY-899]
- residual activity [1]: 98%
- inhibition [2]: 36.4%
- residual activity [3]: 83%
- residual activity [4]: 95%
- residual activity [5]: 82%
- residual activity [6]: 100%
- residual activity [7]: 90%
- residual activity [8]: 100%
- residual activity [9]: 85%
- residual activity [10]: 99%
- residual activity [11]: 63%
- residual activity [12]: 100%
- residual activity [13]: 67%
- residual activity [14]: 80%
- residual activity [15]: 71%
- residual activity [16]: 100%
- residual activity [17]: 100%
- residual activity [18]: 96%
- residual activity [19]: 100%
- residual activity [20]: 79%
- residual activity [21]: 95%
- residual activity [22]: 94%
- residual activity [23]: 75%
- residual activity [24]: 99%
- residual activity [25]: 93%
- residual activity [26]: 91%
- inhibition [27]: 64.4%
- residual activity [28]: 78%
- residual activity [29]: 88%
- residual activity [30]: 33%
- residual activity [31]: 81%
- inhibition [32]: 9.77%
- residual activity [33]: 100%
- residual activity [34]: 84%
- residual activity [35]: 87%
- residual activity [36]: 69%
- residual activity [37]: 100%
- inhibition [38]: 8.72%
- residual activity [39]: 92%

Reference: ChEMBL document CHEMBL4507317, “Data for DCP probe BAY-899” (2021)
